According to patent US7074824B2, “Pharmaceutical compositions containing beta-lapachone, or derivatives or analogs thereof, and methods of using same” (Arqule, Inc., priority 2001, dated 2006):
Where two headings read alike, the source gives them in different places.

What was measured:
[1] = Relative solubility of 14C-labeled β-lapachone in aqueous solutions of solubilizing agents; format: physicochemical
Description: In light of the above, two different strategies were used to enhance β-lapachone solubility in aqueous solution. First, β-lapachone was treated with metal chelating agents, such as calcium and magnesium, to form soluble complexes; second, β-lapachone was treated with the solubilizing agents β-cyclodextrin and γ-cyclodextrin to form soluble inclusion complexes. In order to evaluate these four reagents, ^14C-labeled β-lapachone in a small volume of ethanol was added to aqueous solutions of the reagents (or to PBS buffer as a control), then the relative solubility of β-lapachone in each of the solutions was measured in terms of radioactivity remaining in the supernatant after centrifugation.
Specifically, to individual 1.5 ml Eppendorf tubes containing 900 μl of PBS buffer were added the following: 8 mM CaCl2 in PBS buffer, 8 mM of MgCl2 in PBS buffer, 8 mM β-cyclodextrin in PBS buffer, and 8 mM γ-cyclodextrin in PBS buffer. 10 μl of C^14 labeled β-lapachone (40,000 CPM, 0.55 μg) in 75% ethanol was then added to each tube. After vortexing and centrifuging at 13,000 rpm for 10 min, 100 μl of the supernatant solution was counted for radioactivity using a Beckman Scintillation Counter. […] After vortexing and centrifuging at 13,000 rpm for 10 min, 100 μl of the supernatant solution was counted again for radioactivity. […]

MCF-7 = assay: MTS growth inhibition assay; format: cell-based, human; conditions: Homo sapiens
Description: (§1) A2780 and A2780/CP (ovarian); MCF-7 (breast); HT-29 (colon); BxPC-3 (pancreas); and A549 (lung). The human tumor cell lines (purchased from ATCC, Rockville, Md.) were cultured at 37° C. […] Nova Tech, Grand Island, N.Y.) containing 10% fetal bovine serum (FBS, Nova Tech). Aliquots of cells were seeded into each well of 96-well microtiter plates at a final concentration of 10^4 cells/well and incubated for 24 h prior to exposure to test compounds. […] The MTS assay is a colorimetric assay based upon the ability of viable cells to convert MTS, a novel tetrazolium compound and electron-coupling reagent, to a colored formazan product that is soluble in cell culture medium. The cell concentration is then determined by measuring the absorbance of the formazan product at 490 nm. Growth inhibition, expressed as IC50, is calculated relative to vehicle-treated control cells.

HT-29 = assay: MTS growth inhibition assay; format: cell-based, human; conditions: Homo sapiens
Description: as §1

A2780CP = assay: MTS growth inhibition assay; format: cell-based, human; conditions: Homo sapiens, A2780C/P
Description: as §1

A2780 = assay: MTS growth inhibition assay; format: cell-based, human; conditions: Homo sapiens
Description: as §1

BxPC-3 = assay: MTS growth inhibition assay; format: cell-based, human; conditions: Homo sapiens
Description: as §1

[2] = biological target: T1, human DNA Topoisomerases I (Homo sapiens, UniProt P11387); conditions: cited from earlier work
T1 sequence (P11387 1-765): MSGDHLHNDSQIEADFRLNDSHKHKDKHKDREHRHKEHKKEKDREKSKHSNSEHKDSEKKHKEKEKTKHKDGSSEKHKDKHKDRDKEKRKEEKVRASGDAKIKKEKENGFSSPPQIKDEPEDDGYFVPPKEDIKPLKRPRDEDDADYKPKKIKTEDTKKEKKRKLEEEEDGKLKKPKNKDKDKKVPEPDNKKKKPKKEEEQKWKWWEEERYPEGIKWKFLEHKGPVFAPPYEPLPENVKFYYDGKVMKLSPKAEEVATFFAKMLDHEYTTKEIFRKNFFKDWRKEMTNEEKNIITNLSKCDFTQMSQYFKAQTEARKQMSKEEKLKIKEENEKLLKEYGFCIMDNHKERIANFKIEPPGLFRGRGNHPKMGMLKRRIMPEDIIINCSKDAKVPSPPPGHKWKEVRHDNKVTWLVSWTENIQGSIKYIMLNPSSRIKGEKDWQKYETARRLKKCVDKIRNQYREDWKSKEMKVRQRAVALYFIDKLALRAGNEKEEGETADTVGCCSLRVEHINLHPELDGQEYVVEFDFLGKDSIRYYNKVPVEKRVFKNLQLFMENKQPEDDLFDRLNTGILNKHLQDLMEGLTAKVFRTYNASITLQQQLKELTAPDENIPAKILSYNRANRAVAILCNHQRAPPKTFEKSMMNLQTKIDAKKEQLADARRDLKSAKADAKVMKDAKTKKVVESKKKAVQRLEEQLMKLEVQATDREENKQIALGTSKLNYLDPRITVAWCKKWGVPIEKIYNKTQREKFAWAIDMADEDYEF

## CC1(C)CCC2=C(O1)c1ccccc1C(=O)C2=O [β-lapachone]
[1]; 0.5 μg β-lapachone added, all five aqueous solutions (PBS, CaCl2, MgCl2, β-cyclodextrin, γ-cyclodextrin)
  β-lapachone present in the supernatant: ~100%
[1]; 600 μg β-lapachone added, 8 mM β-cyclodextrin in PBS buffer (only this solution)
  β-lapachone retained in the supernatant: more than 50%
MCF-7; MCF7, read-out: Growth inhibitory activity (50% effective concentration, IC50), MCF-7 breast, Exp 1
  IC50: 2.37 µM
MCF-7; MCF7, read-out: Growth inhibitory activity (50% effective concentration, IC50), MCF-7 breast, Exp 2
  IC50: 4.75 µM
MCF-7; MCF7, read-out: Growth inhibitory activity (50% effective concentration, IC50), MCF-7 breast, Exp 3
  IC50: 2.1 µM
MCF-7; MCF7, read-out: Growth inhibitory activity (50% effective concentration, IC50), MCF-7 breast, Mean ± SE of 3 experiments
  IC50: 3.07 ± 0.84 µM
HT-29; HT-29, read-out: Growth inhibitory activity (50% effective concentration, IC50), HT-29 colon, Exp 1
  IC50: 5.37 µM
HT-29; HT-29, read-out: Growth inhibitory activity (50% effective concentration, IC50), HT-29 colon, Exp 2
  IC50: 11.4 µM
HT-29; HT-29, read-out: Growth inhibitory activity (50% effective concentration, IC50), HT-29 colon, Exp 3
  IC50: 9.89 µM
HT-29; HT-29, read-out: Growth inhibitory activity (50% effective concentration, IC50), HT-29 colon, Mean ± SE of 3 experiments
  IC50: 8.89 ± 1.82 µM
A2780CP; read-out: Growth inhibitory activity (50% effective concentration, IC50), A2780CP (resistant) ovarian, Exp 1
  IC50: 4.47 µM
A2780CP; read-out: Growth inhibitory activity (50% effective concentration, IC50), A2780CP (resistant) ovarian, Exp 2
  IC50: 1.61 µM
A2780CP; read-out: Growth inhibitory activity (50% effective concentration, IC50), A2780CP (resistant) ovarian, Exp 3
  IC50: 1.76 µM
A2780CP; read-out: Growth inhibitory activity (50% effective concentration, IC50), A2780CP (resistant) ovarian, Mean ± SE of 3 experiments
  IC50: 2.61 ± 0.93 µM
A2780; A2780, read-out: Growth inhibitory activity (50% effective concentration, IC50), A2780 (sensitive) ovarian, Exp 1, 4 h treatment + 24 h drug-free
  IC50: 2.11 µM
A2780; A2780, read-out: Growth inhibitory activity (50% effective concentration, IC50), A2780 (sensitive) ovarian, Exp 2, 4 h treatment + 24 h drug-free
  IC50: 3.99 µM
A2780; A2780, read-out: Growth inhibitory activity (50% effective concentration, IC50), A2780 (sensitive) ovarian, Exp 3, 4 h treatment + 24 h drug-free
  IC50: 0.876 µM
A2780; A2780, read-out: Growth inhibitory activity (50% effective concentration, IC50), A2780 (sensitive) ovarian, Mean ± SE of 3 experiments
  IC50: 2.32 ± 0.91 µM
BxPC-3; BXPC-3, read-out: Growth inhibitory activity (50% effective concentration, IC50), BxPC-3 pancreas, Exp 1
  IC50: 11.6 µM
BxPC-3; BXPC-3, read-out: Growth inhibitory activity (50% effective concentration, IC50), BxPC-3 pancreas, Exp 2
  IC50: 5.68 µM
BxPC-3; BXPC-3, read-out: Growth inhibitory activity (50% effective concentration, IC50), BxPC-3 pancreas, Exp 3
  IC50: 16.5 µM
BxPC-3; BXPC-3, read-out: Growth inhibitory activity (50% effective concentration, IC50), BxPC-3 pancreas, Mean ± SE of 3 experiments
  IC50: 11.3 ± 3.12 µM
[2]
  in vitro inhibition: potent in vitro inhibition
